# Literature values, collected in patent US10934504B2, “Laundry treatment compositions comprising perfume and silica microparticles” (Conopco, Inc., priority 2016, dated 2021).
# Details: values taken from the Good Scents website
row,logKow,Compound
1,2.0,CC(=O)OCc1ccccc1 [Benzyl acetate]
2,4.9,CCCCCCCCCC(C)C=O (stereo not drawn) [C12 Aldehyde MNA]
3,2.9,C=CC(C)CCCC(C)(C)O (stereo not drawn) [Dihydromyrcenol]
4,2.7,CC(=O)OC(C)(C)Cc1ccccc1 [Dimethyl benzyl carbinyl acetate]
5,3.6,CC(C=O)Cc1ccc(C(C)(C)C)cc1 (stereo not drawn) [Lilial]
6,3.4,C=C(C)[C@H]1CC=C(C)CC1 [Limonene]
7,2.4,CCCC(C)C(=O)OCC (stereo not drawn) [Manzanate]
8,3.8,c1ccc(CCOC2CCCCC2)cc1 [Phenafleur]
9,2.2,CC(=O)OC1CC2CC1C1CC=CC21 (stereo not drawn) [Verdyl acetate]
10,5.7,CCCCCCOC(=O)c1ccccc1O [n-Hexyl salicylate]
11,2.9,CC(=O)/C=C/C1=C(C)CCCC1(C)C [β-Ionone]

row,Compound,logKow
1,CC(=O)c1cc2c(cc1C)C(C)(C)C(C)CC2(C)C (stereo not drawn) [Tonalid],4.8
